According to ChEMBL document CHEMBL1201862, “PubChem BioAssay data set” (2004):
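Method: 48-hour compound exposure of cells in 96-well plates, five concentrations, linear interpolation of endpoints. GI50 marks 50% less growth.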 The source made the active and inactive calls. Rule as the data show it: active = GI50 up to about 1.1 µM and inactive = higher. Residues, ends and D or L forms follow the SMILES beside them. *: point of attachment. Boc = CC(C)(C)OC(=O)*; OBn = c1ccc(CO*)cc1; Bn = c1ccc(C*)cc1

Key:
Assay in all cases: NCI-60 cell line screen, 48 h
[1] = system: A549
[2] = system: COLO 205
[3] = system: HCC 2998
[4] = system: HCT-15
[5] = system: HL-60
[6] = system: HOP-92
[7] = system: HT-29
[8] = system: M14
[9] = system: NCI-H226
[10] = system: NCI-H522
[11] = system: OVCAR-8
[12] = system: RPMI-8226
[13] = system: SK-MEL-5
[14] = system: SK-OV-3
[15] = system: SN12C
[16] = system: SNB-75
[17] = system: U-251
[18] = system: MCF7
[19] = system: NCI/ADR-RES

| Structure (SMILES) | GI50 [1] | GI50 [2] | GI50 [3] | GI50 [4] | GI50 [5] | GI50 [6] | GI50 [7] | GI50 [8] | GI50 [9] | GI50 [10] | GI50 [11] | GI50 [12] | GI50 [13] | GI50 [14] | GI50 [15] | GI50 [16] | GI50 [17] | GI50 [18] | GI50 [19] |
| --- | --- | --- | --- | --- | --- | --- | --- | --- | --- | --- | --- | --- | --- | --- | --- | --- | --- | --- | --- |
| CCCS(=O)(=O)/C(=C(\c1ccc(Br)cc1)S(=O)(=O)CCC)c1ccc(Br)cc1 | > 10 µM (inactive) | > 10 µM (inactive) | > 10 µM (inactive) | > 10 µM | > 10 µM (inactive) | > 10 µM (inactive) | > 10 µM (inactive) | > 10 µM (inactive) | > 10 µM (inactive) | > 10 µM (inactive) | > 10 µM (inactive) | > 10 µM (inactive) | > 10 µM (inactive) | > 10 µM (inactive) | > 10 µM (inactive) | > 10 µM (inactive) | > 10 µM (inactive) | – | – |
| CN(C)C(=S)N/N=C\C=N/NC(=S)N(C)C | 0.0918 µM (active) | 0.246 µM (active) | – | 0.0843 µM | – | 1.65 µM (inactive) | 0.0625 µM (active) | 0.139 µM (active) | 0.515 µM (active) | 0.22 µM (active) | 0.175 µM (active) | 0.871 µM (active) | 0.349 µM (active) | 0.344 µM (active) | 0.286 µM (active) | 1.75 µM (inactive) | 0.0614 µM (active) | 0.329 µM (active) | 0.189 µM (active) |
| COc1cc2c3c(c1OC)C1(C=CC(=O)C=C1)C[C@H]3N(C)CC2 [PRONUCIFERINE] | > 100 µM (inactive) | > 100 µM (inactive) | > 100 µM (inactive) | > 100 µM | – | > 100 µM (inactive) | > 100 µM (inactive) | > 100 µM (inactive) | > 100 µM (inactive) | 74.3 µM (inactive) | > 100 µM (inactive) | > 100 µM (inactive) | > 100 µM (inactive) | > 100 µM (inactive) | > 100 µM (inactive) | > 100 µM (inactive) | > 100 µM (inactive) | – | – |
| COc1ccc2c3c(c(C(=O)O)oc13)CCC2 | > 100 µM (inactive) | > 100 µM (inactive) | > 100 µM (inactive) | > 100 µM | > 100 µM (inactive) | > 100 µM (inactive) | > 100 µM (inactive) | > 100 µM (inactive) | 18.2 µM (inactive) | > 100 µM (inactive) | > 100 µM (inactive) | > 100 µM (inactive) | > 100 µM (inactive) | > 100 µM (inactive) | > 100 µM (inactive) | 29.1 µM (inactive) | > 100 µM (inactive) | – | – |
| CCCC(=O)c1ccc(=O)n(C)c1 | > 100 µM (inactive) | > 100 µM (inactive) | > 100 µM (inactive) | > 100 µM | > 100 µM (inactive) | > 100 µM (inactive) | > 100 µM (inactive) | > 100 µM (inactive) | > 100 µM (inactive) | > 100 µM (inactive) | > 100 µM (inactive) | > 100 µM (inactive) | > 100 µM (inactive) | > 100 µM (inactive) | > 100 µM (inactive) | > 100 µM (inactive) | > 100 µM (inactive) | – | – |
| COc1c2cc(C(C)(C)C)cc1Cc1cccc(c1OCc1cccc([N+](=O)[O-])c1)Cc1cc(C(C)(C)C)cc(c1OC)Cc1cccc(c1OCc1cccc([N+](=O)[O-])c1)Cc1cc(C(C)(C)C)cc(c1OC)Cc1cccc(c1OCc1cccc([N+](=O)[O-])c1)C2 | > 50 µM (inactive) | > 50 µM (inactive) | > 50 µM (inactive) | > 50 µM | > 50 µM (inactive) | > 50 µM (inactive) | > 50 µM (inactive) | > 50 µM (inactive) | – | > 50 µM (inactive) | > 50 µM (inactive) | > 50 µM (inactive) | > 50 µM (inactive) | – | > 50 µM (inactive) | 23.3 µM (inactive) | > 50 µM (inactive) | > 50 µM (inactive) | > 50 µM (inactive) |
| O=c1oc2c(Cl)cc(Cl)cc2cc1C1=CSC2=NCCN12 | 64.3 µM (inactive) | > 100 µM (inactive) | – | 44.7 µM | 30.3 µM (inactive) | 28.6 µM (inactive) | 61.2 µM (inactive) | 55.2 µM (inactive) | – | – | 63.7 µM (inactive) | 58.9 µM (inactive) | 27.4 µM (inactive) | > 100 µM (inactive) | 51.8 µM (inactive) | 65.8 µM (inactive) | 44.7 µM (inactive) | 28.8 µM (inactive) | 79.6 µM (inactive) |
| CC(=O)O/C(C)=C\C(=O)O/N=C(\N)c1ccc(C)cc1 | 40.4 µM (inactive) | 27.9 µM (inactive) | > 100 µM (inactive) | – | 21.1 µM (inactive) | 33.7 µM (inactive) | 35.6 µM (inactive) | 28.4 µM (inactive) | 28.1 µM (inactive) | 21 µM (inactive) | 36.6 µM (inactive) | 31 µM (inactive) | 22.3 µM (inactive) | > 100 µM (inactive) | 22 µM (inactive) | 19.2 µM (inactive) | 19.5 µM (inactive) | – | – |
| COc1ccc(CSc2ccccc2Cn2cccc2)cc1OC | 98.2 µM (inactive) | > 100 µM (inactive) | 56.6 µM (inactive) | 87.9 µM | 20.7 µM (inactive) | – | 99.8 µM (inactive) | – | > 100 µM (inactive) | – | > 100 µM (inactive) | 11.6 µM (inactive) | 22.4 µM (inactive) | > 100 µM (inactive) | 34.8 µM (inactive) | > 100 µM (inactive) | > 100 µM (inactive) | 36.2 µM (inactive) | 34.3 µM (inactive) |
| O=C1OC(c2ccccc2)=N/C1=C/NC(Cc1ccc(O)cc1)C(=O)O (stereo not drawn) | > 100 µM (inactive) | > 100 µM (inactive) | > 100 µM (inactive) | > 100 µM | > 100 µM (inactive) | > 100 µM (inactive) | > 100 µM (inactive) | > 100 µM (inactive) | > 100 µM (inactive) | > 100 µM (inactive) | > 100 µM (inactive) | > 100 µM (inactive) | > 100 µM (inactive) | > 100 µM (inactive) | – | > 100 µM (inactive) | > 100 µM (inactive) | – | – |
| COc1cc(Br)c(/C=N\c2cccc3cc(OC)c(OC)cc23)cc1OC | > 100 µM (inactive) | 97.7 µM (inactive) | > 100 µM (inactive) | 31.4 µM | 11.3 µM (inactive) | 28.2 µM (inactive) | 31.9 µM (inactive) | 30 µM (inactive) | 41.7 µM (inactive) | > 100 µM (inactive) | 34.7 µM (inactive) | 23.9 µM (inactive) | 36.1 µM (inactive) | > 100 µM (inactive) | 40.6 µM (inactive) | 16.8 µM (inactive) | 42.5 µM (inactive) | – | – |
| CC(Cl)(/C=C/Cl)C(Cl)/C=C/C(Cl)(CCl)CBr (stereo not drawn) | 15.2 µM (inactive) | 2.01 µM (inactive) | 14.6 µM (inactive) | 0.308 µM | 0.533 µM (active) | 2.07 µM (inactive) | 1.69 µM (inactive) | 2.54 µM (inactive) | 10.2 µM (inactive) | 1.45 µM (inactive) | 1.71 µM (inactive) | 1.66 µM (inactive) | 7.52 µM (inactive) | 17.1 µM (inactive) | 3.18 µM (inactive) | 3.17 µM (inactive) | 3.72 µM (inactive) | – | – |
| CC(=O)OCC1OC(NC(=S)N/N=C2\CC(c3ccccc3)Oc3ccccc32)C(OC(C)=O)C(OC(C)=O)C1OC(C)=O (stereo not drawn) | > 100 µM (inactive) | > 100 µM (inactive) | > 100 µM (inactive) | > 100 µM | > 100 µM (inactive) | > 100 µM (inactive) | > 100 µM (inactive) | > 100 µM (inactive) | > 100 µM (inactive) | > 100 µM (inactive) | > 100 µM (inactive) | > 100 µM (inactive) | > 100 µM (inactive) | > 100 µM (inactive) | > 100 µM (inactive) | > 100 µM (inactive) | > 100 µM (inactive) | – | – |
| C1CCC2C(C1)CCCC2NC1=NCCO1 (stereo not drawn) | > 100 µM (inactive) | > 100 µM (inactive) | 72.9 µM (inactive) | > 100 µM | > 100 µM (inactive) | – | 35.7 µM (inactive) | 40 µM (inactive) | > 100 µM (inactive) | > 100 µM (inactive) | > 100 µM (inactive) | 92.5 µM (inactive) | 70 µM (inactive) | > 100 µM (inactive) | > 100 µM (inactive) | 72.8 µM (inactive) | > 100 µM (inactive) | 69.2 µM (inactive) | > 100 µM (inactive) |
| CCC(C=O)P1(=O)OC(C)(C)CN1C(C)(C)C (stereo not drawn) | > 100 µM (inactive) | > 100 µM (inactive) | 76.7 µM (inactive) | 99.8 µM | – | – | > 100 µM (inactive) | > 100 µM (inactive) | > 100 µM (inactive) | – | > 100 µM (inactive) | 65.3 µM (inactive) | > 100 µM (inactive) | 68.1 µM (inactive) | – | – | > 100 µM (inactive) | 84.3 µM (inactive) | 92.3 µM (inactive) |
| CC(C)CC(NC(=O)C(Cc1ccccc1)NC(=O)C(COCc1ccccc1)NC(=O)OC(C)(C)C)C(=O)OCc1ccccc1 (stereo not drawn) (Boc-Ser(Bn)-Phe-Leu-OBn; configuration not given here) | – | 17.5 µM (inactive) | 14.7 µM (inactive) | 16.3 µM | 4.01 µM (inactive) | – | 15.9 µM (inactive) | 37.1 µM (inactive) | – | 13.8 µM (inactive) | 18.7 µM (inactive) | 6.95 µM (inactive) | – | 36.4 µM (inactive) | 25.8 µM (inactive) | 22.1 µM (inactive) | 22.3 µM (inactive) | 37.9 µM (inactive) | > 100 µM (inactive) |
